According to patent US20250320213A1, “Nitrogen-Containing Heterocyclic Compounds” (Pfizer Inc., priority 2024, published 2025):

biological target: T1, STAT6 (Homo sapiens, UniProt P42226); test: STAT6 Reporter Luciferase Assay (IL-13 stimulated HaCaT keratinocyte NanoLuc reporter cells); assay type: cell-based; conditions: IL-13 stimulated HaCaT STAT6 NanoLuc reporter cells; read-out: Reporter EC50
T1 construct: stably transfected HaCaT keratinocyte cell line, which expresses NanoLuc luciferase reporter gene under the transcriptional control of the STAT6 responsive promoter; endogenous in cells; host or cells: HaCaT keratinocyte reporter cell line (stably transfected with a NanoLuc reporter)
T1 sequence (P42226 1-847): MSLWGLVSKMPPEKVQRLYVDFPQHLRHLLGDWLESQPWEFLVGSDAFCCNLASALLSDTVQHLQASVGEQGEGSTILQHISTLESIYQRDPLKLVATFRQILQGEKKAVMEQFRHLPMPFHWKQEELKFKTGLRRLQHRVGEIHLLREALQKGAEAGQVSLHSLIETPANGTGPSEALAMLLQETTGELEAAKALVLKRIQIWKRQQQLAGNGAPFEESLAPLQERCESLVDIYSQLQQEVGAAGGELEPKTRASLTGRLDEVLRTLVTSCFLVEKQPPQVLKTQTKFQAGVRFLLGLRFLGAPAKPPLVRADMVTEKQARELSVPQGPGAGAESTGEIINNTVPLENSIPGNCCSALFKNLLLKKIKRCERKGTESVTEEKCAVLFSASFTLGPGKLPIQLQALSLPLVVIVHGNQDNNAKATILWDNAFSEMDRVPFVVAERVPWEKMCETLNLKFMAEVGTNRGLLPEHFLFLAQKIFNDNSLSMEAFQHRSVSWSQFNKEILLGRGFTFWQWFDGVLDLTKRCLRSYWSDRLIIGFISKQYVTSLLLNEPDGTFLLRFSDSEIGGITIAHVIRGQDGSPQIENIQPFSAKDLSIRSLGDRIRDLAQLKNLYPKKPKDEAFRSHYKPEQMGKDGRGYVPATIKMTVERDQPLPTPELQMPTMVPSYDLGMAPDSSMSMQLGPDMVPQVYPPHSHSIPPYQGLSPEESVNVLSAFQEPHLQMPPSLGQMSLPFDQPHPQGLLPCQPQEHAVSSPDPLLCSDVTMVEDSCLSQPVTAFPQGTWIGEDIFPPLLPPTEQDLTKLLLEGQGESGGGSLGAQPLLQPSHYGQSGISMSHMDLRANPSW
In short: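 Stably transfected HaCaT cells carrying NanoLuc under the STAT6-responsive IL-13Ra2 promoter were pre-treated with compound (11-point, 4-fold series, duplicate) for 2 h at 37 °C, then stimulated with 0.12 nM IL-13 for 4 h. Nano-Glo luminescence was read after 15 min.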

| SMILES | EC50 |
| --- | --- |
| Cc1nn(C)c2c1CN(C(=O)c1ccc(N3CCc4c(c(C(=O)NCc5ccc(NC(=O)N(C)C)cc5)nn4C(C)C)C3)nc1)CC2 [Example 369, 5-(5-(1,3-dimethyl-4,5,6,7-tetrahydro-1H-pyrazolo[4,3-c]pyridine-5-carbonyl)pyridin-2-yl)-N-(4-(3,3-dimethylureido)benzyl)-1-isopropyl-4,5,6,7-tetrahydro-1H-pyrazolo[4,3-c]pyridine-3-carboxamide] | 38 nM |
| CC(C)n1nc(C(=O)NCc2ccc(NC(=O)N(C)C)cc2)c2c1CCN(c1ccc(C(=O)N3Cc4cnc(C5CC5)nc4C3)cn1)C2 [Example 370, 5-(5-(2-cyclopropyl-6,7-dihydro-5H-pyrrolo[3,4-d]pyrimidine-6-carbonyl)pyridin-2-yl)-N-(4-(3,3-dimethylureido)benzyl)-1-isopropyl-4,5,6,7-tetrahydro-1H-pyrazolo[4,3-c]pyridine-3-carboxamide] | 11 nM |
| CC(C)n1nc(C(=O)NCc2ccc(NC(=O)N(C)C)cc2)c2c1CCN(c1ccc(C(=O)N3CCc4cnn(C)c4C3)cn1)C2 [Example 371, N-(4-(3,3-dimethylureido)benzyl)-1-isopropyl-5-(5-(1-methyl-4,5,6,7-tetrahydro-1H-pyrazolo[3,4-c]pyridine-6-carbonyl)pyridin-2-yl)-4,5,6,7-tetrahydro-1H-pyrazolo[4,3-c]pyridine-3-carboxamide] | 50 nM |
| CC(C)n1nc(C(=O)NCc2ccc(NC(=O)N(C)C)cc2)c2c1CCN(c1ccc(C(=O)N3CCn4ccnc4C3)cn1)C2 [Example 372, N-(4-(3,3-dimethylureido)benzyl)-1-isopropyl-5-(5-(5,6,7,8-tetrahydroimidazo[1,2-a]pyrazine-7-carbonyl)pyridin-2-yl)-4,5,6,7-tetrahydro-1H-pyrazolo[4,3-c]pyridine-3-carboxamide] | 59 nM |
| Cc1nnc2n1CCN(C(=O)c1ccc(N3CCc4c(c(C(=O)NCc5ccc(NC(=O)N(C)C)cc5)nn4C(C)C)C3)nc1)C2 [Example 373, N-(4-(3,3-dimethylureido)benzyl)-1-isopropyl-5-(5-(3-methyl-5,6,7,8-tetrahydro-[1,2,4]triazolo[4,3-a]pyrazine-7-carbonyl)pyridin-2-yl)-4,5,6,7-tetrahydro-1H-pyrazolo[4,3-c]pyridine-3-carboxamide] | 540 nM |
| CC(C)n1nc(C(=O)NCc2ccc(NC(=O)N(C)C)cc2)c2c1CCN(c1ccc(C(=O)N3CCc4ncsc4C3)cn1)C2 [Example 374, N-(4-(3,3-dimethylureido)benzyl)-1-isopropyl-5-(5-(4,5,6,7-tetrahydrothiazolo[5,4-c]pyridine-5-carbonyl)pyridin-2-yl)-4,5,6,7-tetrahydro-1H-pyrazolo[4,3-c]pyridine-3-carboxamide] | 14 nM |
| Cc1cc2n(n1)CCN(C(=O)c1ccc(N3CCc4c(c(C(=O)NCc5ccc(NC(=O)N(C)C)cc5)nn4C(C)C)C3)nc1)C2 [Example 377, N-(4-(3,3-dimethylureido)benzyl)-1-isopropyl-5-(5-(2-methyl-4,5,6,7-tetrahydropyrazolo[1,5-a]pyrazine-5-carbonyl)pyridin-2-yl)-4,5,6,7-tetrahydro-1H-pyrazolo[4,3-c]pyridine-3-carboxamide] | 21 nM |
| CC(C)n1nc(C(=O)NCc2ccc(NC(=O)N(C)C)cc2)c2c1CCN(c1ccc(C(=O)N3CCc4nocc4C3)cn1)C2 [Example 383, N-(4-(3,3-dimethylureido)benzyl)-1-isopropyl-5-(5-(4,5,6,7-tetrahydroisoxazolo[4,3-c]pyridine-5-carbonyl)pyridin-2-yl)-4,5,6,7-tetrahydro-1H-pyrazolo[4,3-c]pyridine-3-carboxamide] | 49 nM |

Further compounds by falling EC50, results first:

| EC50 | SMILES |
| --- | --- |
| 538 nM | CC(C)n1nc(C(=O)NCc2ccc(NC(=O)N(C)C)cc2)c2c1CCN(c1ccc(C(=O)N3CCn4cnnc4C3)cn1)C2 [Example 380, N-(4-(3,3-dimethylureido)benzyl)-1-isopropyl-5-(5-(5,6,7,8-tetrahydro-[1,2,4]triazolo[4,3-a]pyrazine-7-carbonyl)pyridin-2-yl)-4,5,6,7-tetrahydro-1H-pyrazolo[4,3-c]pyridine-3-carboxamide] |
| 137 nM | Cc1ncc2n1CCN(C(=O)c1ccc(N3CCc4c(c(C(=O)NCc5ccc(NC(=O)N(C)C)cc5)nn4C(C)C)C3)nc1)C2 [Example 382, N-(4-(3,3-dimethylureido)benzyl)-1-isopropyl-5-(5-(3-methyl-5,6,7,8-tetrahydroimidazo[1,5-a]pyrazine-7-carbonyl)pyridin-2-yl)-4,5,6,7-tetrahydro-1H-pyrazolo[4,3-c]pyridine-3-carboxamide] |
| 72 nM | CC(C)n1nc(C(=O)NCc2ccc(NC(=O)N(C)C)cc2)c2c1CCN(c1ccc(C(=O)N3CCn4ncnc4C3)cn1)C2 [Example 367, N-(4-(3,3-dimethylureido)benzyl)-1-isopropyl-5-(5-(5,6,7,8-tetrahydro-[1,2,4]triazolo[1,5-a]pyrazine-7-carbonyl)pyridin-2-yl)-4,5,6,7-tetrahydro-1H-pyrazolo[4,3-c]pyridine-3-carboxamide] |
| 70 nM | CC(C)n1nc(C(=O)NCc2ccc(NC(=O)N(C)C)cc2)c2c1CCN(c1ccc(C(=O)N3CCc4ncncc4C3)cn1)C2 [Example 379, N-(4-(3,3-dimethylureido)benzyl)-1-isopropyl-5-(5-(5,6,7,8-tetrahydropyrido[4,3-d]pyrimidine-6-carbonyl)pyridin-2-yl)-4,5,6,7-tetrahydro-1H-pyrazolo[4,3-c]pyridine-3-carboxamide] |
| 33 nM | Cc1c2c(nn1C)CCN(C(=O)c1ccc(N3CCc4c(c(C(=O)NCc5ccc(NC(=O)N(C)C)cc5)nn4C(C)C)C3)nc1)C2 [Example 381, 5-(5-(2,3-dimethyl-4,5,6,7-tetrahydro-2H-pyrazolo[4,3-c]pyridine-5-carbonyl)pyridin-2-yl)-N-(4-(3,3-dimethylureido)benzyl)-1-isopropyl-4,5,6,7-tetrahydro-1H-pyrazolo[4,3-c]pyridine-3-carboxamide] |
| 29 nM | CC(C)n1nc(C(=O)NCc2ccc(NC(=O)N(C)C)cc2)c2c1CCN(c1ccc(C(=O)N3CCc4nccnc4C3)cn1)C2 [Example 366, N-(4-(3,3-dimethylureido)benzyl)-1-isopropyl-5-(5-(5,6,7,8-tetrahydropyrido[3,4-b]pyrazine-6-carbonyl)pyridin-2-yl)-4,5,6,7-tetrahydro-1H-pyrazolo[4,3-c]pyridine-3-carboxamide] |
| 15 nM | CC(C)n1nc(C(=O)NCc2ccc(NC(=O)N(C)C)cc2)c2c1CCN(c1ccc(C(=O)N3Cc4ccncc4C3)cn1)C2 [Example 378, 5-(5-(2,3-dihydro-1H-pyrrolo[3,4-c]pyridine-2-carbonyl)pyridin-2-yl)-N-(4-(3,3-dimethylureido)benzyl)-1-isopropyl-4,5,6,7-tetrahydro-1H-pyrazolo[4,3-c]pyridine-3-carboxamide] |
| 10 nM | CC(C)n1nc(C(=O)NCc2ccc(NC(=O)N(C)C)cc2)c2c1CCN(c1ccc(C(=O)N3CCc4ncccc4C3)cn1)C2 [Example 376, N-(4-(3,3-dimethylureido)benzyl)-1-isopropyl-5-(5-(5,6,7,8-tetrahydro-1,6-naphthyridine-6-carbonyl)pyridin-2-yl)-4,5,6,7-tetrahydro-1H-pyrazolo[4,3-c]pyridine-3-carboxamide] |
| 6 nM | Cc1nc2c(s1)CN(C(=O)c1ccc(N3CCc4c(c(C(=O)NCc5ccc(NC(=O)N(C)C)cc5)nn4C(C)C)C3)nc1)CC2 [Example 365, N-(4-(3,3-dimethylureido)benzyl)-1-isopropyl-5-(5-(2-methyl-4,5,6,7-tetrahydrothiazolo[5,4-c]pyridine-5-carbonyl)pyridin-2-yl)-4,5,6,7-tetrahydro-1H-pyrazolo[4,3-c]pyridine-3-carboxamide] |
| 5 nM | Cc1cc(C)c2c(n1)CN(C(=O)c1ccc(N3CCc4c(c(C(=O)NCc5ccc(NC(=O)N(C)C)cc5)nn4C(C)C)C3)nc1)C2 [Example 368, 5-(5-(2,4-dimethyl-6,7-dihydro-5H-pyrrolo[3,4-b]pyridine-6-carbonyl)pyridin-2-yl)-N-(4-(3,3-dimethylureido)benzyl)-1-isopropyl-4,5,6,7-tetrahydro-1H-pyrazolo[4,3-c]pyridine-3-carboxamide] |
| 4 nM | CC(C)n1nc(C(=O)NCc2ccc(NC(=O)N(C)C)cc2)c2c1CCN(c1ccc(C(=O)N3Cc4cn(C)nc4C3)cn1)C2 [Example 385, N-(4-(3,3-dimethylureido)benzyl)-1-isopropyl-5-(5-(2-methyl-2,4,5,6-tetrahydropyrrolo[3,4-c]pyrazole-5-carbonyl)pyridin-2-yl)-4,5,6,7-tetrahydro-1H-pyrazolo[4,3-c]pyridine-3-carboxamide] |
